# According to patent US20120238549A1, “Nuclear Hormone Receptor Modulators” (ABBOTT LABORATORIES, priority 2011, published 2012):
# pIC50: −log10 of the molar value.
# Molecular target: T1, Glucocorticoid Receptor (GR) (Homo sapiens, UniProt P04150)
# T1 construct: purchased Invitrogen P2893
# T1 sequence (P04150 1-777): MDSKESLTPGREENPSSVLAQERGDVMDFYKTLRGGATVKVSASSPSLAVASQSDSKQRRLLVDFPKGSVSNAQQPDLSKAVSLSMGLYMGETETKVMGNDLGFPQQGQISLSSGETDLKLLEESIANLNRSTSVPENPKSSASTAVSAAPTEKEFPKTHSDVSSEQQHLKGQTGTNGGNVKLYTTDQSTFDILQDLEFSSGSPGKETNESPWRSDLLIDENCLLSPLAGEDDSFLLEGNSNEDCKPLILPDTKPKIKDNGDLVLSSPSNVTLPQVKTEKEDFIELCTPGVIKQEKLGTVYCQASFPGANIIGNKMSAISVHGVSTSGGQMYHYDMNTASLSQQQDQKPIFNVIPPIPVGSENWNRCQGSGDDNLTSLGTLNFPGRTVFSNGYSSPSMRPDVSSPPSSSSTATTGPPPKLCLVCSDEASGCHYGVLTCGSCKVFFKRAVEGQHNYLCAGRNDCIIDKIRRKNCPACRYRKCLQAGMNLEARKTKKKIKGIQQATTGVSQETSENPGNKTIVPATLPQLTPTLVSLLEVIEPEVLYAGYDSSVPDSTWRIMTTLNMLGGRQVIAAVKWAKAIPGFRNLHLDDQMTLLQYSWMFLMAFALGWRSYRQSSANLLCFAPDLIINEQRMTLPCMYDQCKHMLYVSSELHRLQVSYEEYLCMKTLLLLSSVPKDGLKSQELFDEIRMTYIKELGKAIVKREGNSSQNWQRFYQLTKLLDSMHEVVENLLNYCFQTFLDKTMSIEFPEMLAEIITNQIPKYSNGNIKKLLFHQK
# Assay: GR Florescence Polarization Assay (PolarScreen Glucocorticoid Receptor Competitor Assay, Red)
# Settings: Fluorescense polarization binding ranges; competition with fluorescent glucocorticoid, incubated overnight at 4° C.
# Outline: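 Competitive fluorescence polarization using fluorescent glucocorticoid tracer and human GR in kit buffer. Compounds serially diluted 1:4 in DMSO, incubated with tracer and GR overnight at 4 °C before polarization read.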
row,SMILES,pIC50
1,"CC[C@@]12CC[C@](O)(CCC(F)(F)F)C[C@@H]1CCCc1cc(C(=O)Nc3cccnc3C)ccc12.CC[C@]12CC[C@@](O)(CCC(F)(F)F)C[C@H]1CCCc1cc(C(=O)Nc3cccnc3C)ccc12 [Example 133, (7aS,9S,11aR)-11a-Ethyl-9-hydroxy-9-(3,3,3-trifluoro-propyl)-6,7,7a,8,9,10,11,11a-octahydro-5H-dibenzo[a,c]cycloheptene-3-carboxylic acid (2-methyl-pyridin-3-yl)-amide; compound with (7aR,9R,11aS)-11a-ethyl-9-hydroxy-9-(3,3,3-trifluoro-propyl)-6,7,7a,8,9,10,11,11a-octahydro-5H-dibenzo[a,c]cycloheptene-3-carboxylic acid (2-methyl-pyridin-3-yl)-amide]",> 7.00
2,"CC[C@@]1(O)CC[C@@]2(Cc3ccccc3)c3ccc(C(=O)Nc4cnc(C)nc4C)cc3CCC[C@H]2C1 [Example 68, (7aS,9R,11aS)-11a-Benzyl-9-ethyl-9-hydroxy-6,7,7a,8,9,10,11,11a-octahydro-5H-dibenzo[a,c]cycloheptene-3-carboxylic acid (2,4-dimethyl-pyrimidin-5-yl)-amide]",> 7.00
3,"CCC[C@@]1(O)CC[C@@]2(CC)c3ccc(C(=O)Nc4cccnc4C)cc3OCC[C@H]2C1 (single isomer, unassigned) [Example 121]",> 7.00
4,"CC[C@@]12CC[C@](O)(c3ccccc3)C[C@@H]1CCOc1cc(C(=O)Nc3cccnc3C)ccc12 (racemic) [Example 134, (7aS,9R,11aR)-11a-Ethyl-9-hydroxy-N-(2-methylpyridin-3-yl)-9-phenyl-6,7,7a,8,9,10,11,11a-octahydrodibenzo[b,d]oxepine-3-carboxamide; compound with (7aR,9S,11aS)-11a-ethyl-9-hydroxy-N-(2-methylpyridin-3-yl)-9-phenyl-6,7,7a,8,9,10,11,11a-octahydrodibenzo[b,d]oxepine-3-carboxamide]",> 7.00
5,Cc1ncccc1NC(=O)c1ccc2c(c1)CCC[C@H]1C[C@@](O)(CO)CC[C@@]21Cc1ccccc1 (racemic) [Example 104],6.00 to 7.00
6,Cc1ncccc1NC(=O)c1ccc2c(c1)CCC[C@H]1C[C@@](O)(COC(C)C)CC[C@@]21Cc1ccccc1 (racemic) [Example 97],> 7.00
7,"Cc1ncccc1NC(=O)c1ccc2c(c1)CN(C)C[C@H]1C[C@@H](O)CC[C@@]21Cc1ccccc1 [Example 109, (3S,4aS,11bS)-11b-benzyl-3-hydroxy-6-methyl-N-(2-methylpyridin-3-yl)-2,3,4,4a,5,6,7,11b-octahydro-1H-dibenzo[c,e]azepine-9-carboxamide]",< 5.00
8,"CCC[C@@]1(O)CC[C@@]2(CC)c3ccc(-c4nc5ccccc5[nH]4)cc3CCC[C@H]2C1 (single isomer, unassigned) [Example 147]",5.00 to 6.00
9,"CC[C@@]1(O)CC[C@@]2(Cc3ccccc3)c3ccc(C(=O)Nc4cccnc4C)cc3C(=O)N(C)C[C@@H]2C1 [Example 113, (3R,4aR,11bS)-11b-Benzyl-3-ethyl-3-hydroxy-6-methyl-N-(2-methylpyridin-3-yl)-7-oxo-2,3,4,4a,5,6,7,11b-octahydro-1H-dibenzo[c,e]azepine-9-carboxamide]",5.00 to 6.00
10,CC[C@@]1(O)CC[C@@]2(Cc3ccccc3)c3ccc(C(=O)Nc4cnccc4C)cc3CCC[C@H]2C1 [Example 71],> 7.00
11,"CCC[C@]1(O)CC[C@]2(CC)c3ccc(C(=O)Nc4cccnc4C)cc3C(=O)CC[C@@H]2C1 (single isomer, unassigned) [Example 62]",> 7.00
12,"CC[C@]1(O)CC[C@]2(Cc3ccccc3)c3ccc(C(=O)Nc4cccnc4C)cc3CCC[C@@H]2C1 (single isomer, unassigned) [Example 15]",6.00 to 7.00
13,"CC[C@@]1(O)CC[C@]2(Cc3ccccc3)c3c(cnn3C)CCC[C@@H]2C1.CC[C@]1(O)CC[C@@]2(Cc3ccccc3)c3c(cnn3C)CCC[C@H]2C1 [Example 39, (6aS,8S,10aS)-10a-Benzyl-8-ethyl-1-methyl-1,4,5,6,6a,7,8,9,10,10a-decahydro-1,2-diaza-benzo[e]azulen-8-ol; compound with (6aR,8R,10aR)-10a-benzyl-8-ethyl-1-methyl-1,4,5,6,6a,7,8,9,10,10a-decahydro-1,2-diaza-benzo[e]azulen-8-ol]",< 5.00

# Further lines, results first:
row,pIC50,SMILES
1,> 7.00,"CCC[C@@]1(O)CC[C@@]2(CC)c3ccc(C(=O)Nc4ccccc4N)cc3CCC[C@H]2C1 (racemic) [Example 145, (7aS,9R,11aR)-11a-Ethyl-9-hydroxy-9-propyl-6,7,7a,8,9,10,11,11a-octahydro-5H-dibenzo[a,c]cycloheptene-3-carboxylic acid (2-amino-phenyl)-amide; compound with (7aR,9S,11aS)-11a-ethyl-9-hydroxy-9-propyl-6,7,7a,8,9,10,11,11a-octahydro-5H-dibenzo[a,c]cycloheptene-3-carboxylic acid (2-amino-phenyl)-amide]"
2,> 7.00,"Cc1ncccc1NC(=O)c1ccc2c(c1)C(=O)CC[C@@H]1C[C@@](O)(C(F)(F)F)CC[C@@]21Cc1ccccc1 [Example 118, (7aR,9R,11aS)-11a-Benzyl-9-hydroxy-5-oxo-9-trifluoromethyl-6,7,7a,8,9,10,11,11a-octahydro-5H-dibenzo[a,c]cycloheptene-3-carboxylic acid (2-methyl-pyridin-3-yl)-amide]"
3,5.00 to 6.00,"CC[C@]1(O)CC[C@]2(Cc3ccccc3)c3ccc(C(=O)Nc4cccnc4C)cc3C(=O)CC[C@@H]2C1 (single isomer, unassigned) [Example 25]"
4,> 7.00,"COC[C@@]1(O)CC[C@@]2(Cc3ccccc3)c3ccc(C(=O)Nc4cccnc4C)cc3CCC[C@H]2C1 (racemic) [Example 18, (7aS,9R,11aS)-11a-Benzyl-9-hydroxy-9-methoxymethyl-6,7,7a,8,9,10,11,11a-octahydro-5H-dibenzo[a,c]cycloheptene-3-carboxylic acid (2-methyl-pyridin-3-yl)-amide; compound with (7aR,9S,11aR)-11a-benzyl-9-hydroxy-9-methoxymethyl-6,7,7a,8,9,10,11,11a-octahydro-5H-dibenzo[a,c]cycloheptene-3-carboxylic acid (2-methyl-pyridin-3-yl)-amide]"
5,6.00 to 7.00,"CC#C[C@]1(O)CC[C@@]2(Cc3ccccc3)c3ccc(C(=O)Nc4cccnc4C)cc3CCC[C@H]2C1 (racemic) [Example 29, (7aS,9S,11aS)-11a-Benzyl-9-hydroxy-9-prop-1-ynyl-6,7,7a,8,9,10,11,11a-octahydro-5H-dibenzo[a,c]cycloheptene-3-carboxylic acid (2-methyl-pyridin-3-yl)-amide; compound with (7aR,9R,11aR)-11a-benzyl-9-hydroxy-9-prop-1-ynyl-6,7,7a,8,9,10,11,11a-octahydro-5H-dibenzo[a,c]cycloheptene-3-carboxylic acid (2-methyl-pyridin-3-yl)-amide]"
6,6.00 to 7.00,"CC[C@@]12CC[C@](O)(CC#N)C[C@@H]1CCCc1cc(C(=O)Nc3cccnc3C)ccc12 (racemic) [Example 64, (7aS,9R,11aR)-9-Cyanomethyl-11a-ethyl-9-hydroxy-6,7,7a,8,9,10,11,11a-octahydro-5H-dibenzo[a,c]cycloheptene-3-carboxylic acid (2-methyl-pyridin-3-yl)-amide; compound with (7aR,9S,11aS)-9-cyanomethyl-11a-ethyl-9-hydroxy-6,7,7a,8,9,10,11,11a-octahydro-5H-dibenzo[a,c]cyclo heptene-3-carboxylic acid (2-methyl-pyridin-3-yl)-amide]"
